One assay has as its system human melanocytes. As to the kind of experiment: DNA damage as measured by 8-oxo-dG immunofluorescence. Type of assay: cell-based. An excerpt:
DNA damage of cultured melanocytes following UV irradiation leads to consistent levels of photoproducts such as 8-oxo-dG. It is well established in the art (dermal carcinogenesis) that 8-oxodG is a major form of UV-induced oxidative DNA damage, which results from the generation of reactive oxygen species (ROS). The induction of 8-oxodG by 8-oxo-dGTP can be inhibited by pyrophosphohydrolases (8-[…]) that convert it to 8-oxo-dGMP. […] Immunofluorescence was detected using a microscope with FITC filters. Data were expressed as the mean fluorescence intensity±S.E., determined using the densitometry values from 6-8 randomly obtained images, using the computer assisted program Alpha Inotech Imaging System and the AlphaEase FC StandAlone Software.

Another assay relates to melanocyte strain 1513c. The assay can be described thus: Tyrosinase activity as a measure of stability / residual effect, strain 1513c. It is filed as cell-based, human. The procedure: To determine the residual effect of CUV9900, as compared to NDP-MSH and α-MSH, on tyrosinase activity, melanocytes were treated with either CUV9900 or NDP-MSH at the concentrations previously described for a total of 3 days. Tyrosinase activity was measured at the end of the 3 days of treatment, and 2 and 4 days after maintenance of the melanocytes in the complete absence of any treatment.
With continued reference to FIGS. 7, 8 and 9, to determine the stability of CUV9900 versus that of NDP-MSH and α-MSH, melanocytes were treated with 1 nM of each peptide, namely with CUV9900, NDP-MSH and α-MSH, for a total of 6 days, or with 1 nM peptides that were incubated for 5 hours at 37° C. prior to addition to the cultures, every other day, for a total of 6 days. Tyrosinase activity was measured at the end of treatment. In the experiments, cell number represents the mean percent of control of 3 determinations/group±SE, and tyrosinase activity data represent the mean percent of control of 6 determinations±S.E. It should be noted that for the sake of reproducibility the experiment of strain 1513c of FIG. 9 was performed once more 6 months later than the experiment of FIG. 7.
Melanocytes were treated for 3 days with the designated concentrations of CUV9900, NDP-MSH, or MSH, then maintained in absence of peptides for 4 days. Tyrosinase activity was determined 3 days after treatment.
Comparison of stability of CUV9900, NDP-MSH and MSH was compared in 1513c, as shown in FIG. 7; the strain was treated for 6 days with 1 nM CUV9900, NDP-MSH or MSH with fresh medium and peptide replenished every 2 days. Melanocytes were treated according to the same experiment protocol but each peptide was incubated for 5-7 hours at 37 degrees Celsius. […] The assessment of tyrosinase was statistically different from control, as determined by ANOVA (p=<0.05).
Tyrosinase activity as a measure of stability is shown in Tables 4 to 6 below, wherein Table 4 is based on data derived from FIG. 7, Table 5 is based on data derived from FIG. 9, and Table 6 is based on data derived from FIG. 8: […]

For a further assay, the system named is Melanocytes. The assay can be described thus: DNA damage as measured by cyclobutane pyrimidine dimers (CPD), flow cytometry. The following applies: 48 h after 105 mJ/cm^2 UV. It is filed as cell-based, human. The procedure: Cyclobutane pyrimidine dimers (CPD), the major determinant of UV-induced DNA photoproducts, were detected using flow cytometry analysis.
Melanocytes were pretreated with 0 (control), 10 nM α-MSH or 1 nM NDP-MSH or 1 nM CUV9900 for 4 days prior to, and 2 days after exposure to 105 mJ/cm^2 UV, harvested 48 hours post irradiation, fixated with 70% ethanol, the DNA denatured with 1N HCl/0.2 mg/ml pepsin, then renaturated with sodium tetraborate. Melanocytes were blocked and incubated overnight at 4° C. with the anti-CPD antibody (diluted 1:500; TDM-2 clone), then with goat anti-mouse IgG Alexa Fluor 488 (Invitrogen, Carlsbad Calif.) for 1 hour, and finally resuspended in PBS containing RNase A and propidium iodide. Melanocytes were analyzed on a Coulter EPICS XL flow cytometer (Beckman Coulter) using a 488 nm argon ion laser A 525 band pass filter was used for the Alexa fluor 488 and a 620 band pass filter for the propidium iodide.

The subject of the next assay is melanocytes strain 1505b. The assay can be described thus: Tyrosinase activity dose-response, strain 1505b. Type of assay: cell-based, human. The procedure:
Dose-response experiments were carried out on another adult strain 102b which is shown in FIG. 6 and on the strain 1505b which is a melanocyte strain: melanocytes were treated with 0.001-10 nM CUV9990 or NDP-MSH, or 0.1-10 nM MSH for a total of 6 days, with the culture medium changed and fresh peptide added every other day. Cell numbers as well as tyrosinase activity were then determined. Tyrosinase activity was calculated first at activity/10^6 cells, and then as % of control. Twenty-four hours prior the end of the experiment, melanocytes received […] (0.7 μCi/ml medium). The conditioned medium from each dish was collected to be assayed for tyrosinase activity, and the cell numbers were determined using a Coulter Counter. Triplicate dishes were included in each group, and duplicate samples from each dish were assayed for tyrosinase activity. Each data point is the mean percent of control of 6 determinations/group±S.E.

Non-standard residues stand in square brackets, D forms with d. Nle = CCCC[C@H](N)C(=O)O

Take “Ac-Nle-Glu His-D-Phe-Arg-Trp-NH2 (Ac-[Nle]EH[dF]RW-NH2; SMILES CCCC[C@H](NC(C)=O)C(=O)N[C@@H](CCC(=O)O)C(=O)N[C@@H](Cc1c[nH]cn1)C(=O)N[C@H](Cc1ccccc1)C(=O)N[C@@H](CCCNC(=N)N)C(=O)N[C@@H](Cc1c[nH]c2ccccc12)C(N)=O) [CUV9900, hexapeptide alpha-MSH analogue]”: the “less 8-oxo-dG cellular DNA damage in comparison with alpha-MSH” value with human melanocytes is 33%. The “tyrosinase activity, comparison in words” value in the assay with melanocyte strain 1513c (first experiment in strain 1513c (Table 4)) is “increased tyrosinase activity in comparison to Control and MSH, but marginally less than NDP-MSH”. Besides, in the assay on melanocyte strain 1513c (strain 1513c [1], 1 nM, mean of columns 1-3), the “Tyrosinase activity, Mean” value is 215.7 % of control. Also, the “effect of incubating the peptide on its stimulation of tyrosinase activity” value with melanocyte strain 1513c (strain 1513c, 1 nM peptide incubated 5-7 hours at 37 degrees Celsius) is reported as “no effect on its ability to stimulate tyrosinase activity”. Besides, the “Tyrosinase activity, Mean [1 + 2]” value in the assay on melanocyte strain 1513c (strain 1513c, mean over experiments [1] and [2]) is on record as 284.2 % of control. In addition, in the assay with Melanocytes, the “CPD cellular DNA damage, comparison in words” value was “less CPD cellular DNA damage in comparison with and NDP-MSH and slightly higher values than alpha-MSH”. Moreover, the “effect on tyrosinase activity, comparison” value in the assay with melanocytes strain 1505b is listed as “equivalent to that of NDP-MSH”. Besides, in the assay on melanocytes strain 1505b (6 days treatment), the “minimal effective dose, tyrosinase activity” value was 1 pM.

The values are drawn from patent US20130331331A1, “HEXAPEPTIDE WITH IMPROVED ACTIVITY IN THE REPAIR OF CELLULAR DNA OF DERMAL CELLS” (priority 2011, published 2013).
